In PubChem BioAssay AID2060609 (Molecular Pharmacology Branch, DTP, NCI, 2025):
Where “and” joins values, the source holds several entries; their conditions need not be identical. Identical values can stand only once. Each block holds one molecule with its values, some of them ahead of it.

Test system: 855422-203-R-J1-PDC complex spheroids, viability
Experiment: Anticancer human tumor 855422-203-R-J1-PDC patient-derived bladder carcinoma cell line growth inhibition [CLK]
Conditions: for viability, T/C: stronger effect = lower value
Summary of the method: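 Patient-derived tumor cells grown as complex spheroids with HUVEC endothelial cells and mesenchymal stem cells, treated with drug combinations. Concentrations descend in half-log steps from near clinical Cmax, or from 10 microM if Cmax unknown.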

[1] = curve of first compound, second compound 0.0316 µM
[2] = curve of first compound, second compound 0.1 µM
[3] = curve of first compound, second compound 0.316 µM
[4] = curve of first compound, second compound 1 µM
[5] = curve of first compound, second compound 3.16 µM
[6] = curve of first compound, second compound 10 µM
[7] = second compound 0.0316 µM, first compound 0.0316 µM
[8] = second compound 0.0316 µM, first compound 0.1 µM
[9] = second compound 0.1 µM, first compound 0.0316 µM
[10] = second compound 0.1 µM, first compound 0.1 µM
[11] = second compound 0.316 µM, first compound 0.0316 µM
[12] = second compound 0.316 µM, first compound 0.1 µM
[13] = second compound 1 µM, first compound 0.0316 µM
[14] = second compound 1 µM, first compound 0.1 µM
[15] = second compound 3.16 µM, first compound 0.0316 µM
[16] = second compound 3.16 µM, first compound 0.1 µM
[17] = second compound 10 µM, first compound 0.0316 µM
[18] = second compound 10 µM, first compound 0.1 µM
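Further: spheroids exposed to drugs for seven days before readout.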
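Wherever viability, T/C is given: 100% = DMSO vehicle control wells.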

IC50 (curve of compound): 6140 nM and 6390 nM
SMILES: CC1(C)CCC(CN2CCN(c3ccc(C(=O)NS(=O)(=O)c4ccc(NCC5CCOCC5)c([N+](=O)[O-])c4)c(Oc4cnc5[nH]ccc5c4)c3)CC2)=C(c2ccc(Cl)cc2)C1
viability, T/C (compound 0.0316 µM): 107% and 106% | viability, T/C (compound 0.1 µM): 90.2% and 119% | viability, T/C (compound 0.316 µM): 117% and 124% | viability, T/C (compound 1 µM): 103% and 118% | viability, T/C (compound 3.16 µM): 159% and 150% | viability, T/C (compound 10 µM): 1.83% and 3.19%

IC50 (curve of compound): > 1000 nM and 778 nM
SMILES: CCN1CCN(Cc2ccc(Nc3ncc(F)c(-c4cc(F)c5nc(C)n(C(C)C)c5c4)n3)nc2)CC1
viability, T/C (compound 0.00316 µM): 99.2% and 123% | viability, T/C (compound 0.01 µM): 85.2% and 96.2% | viability, T/C (compound 0.0316 µM): 79.4% and 92.5% | viability, T/C (compound 0.1 µM): 55.2% and 50% | viability, T/C (compound 0.316 µM): 50.4% and 57.6% | viability, T/C (compound 1 µM): 62.8% and 49.6%

SMILES: COC1C=CCC(C)C(C)S(=O)(=O)NC(=O)c2ccc3c(c2)N(CC2CCC21)CC1(CCCc2cc(Cl)ccc21)CO3 (stereo not given) + CN1CCN(c2cc(C(=O)Nc3cc4cc(-c5cnn(C)c5)ccc4cn3)ccn2)CC1
IC50 [1]: 5970 nM | IC50 [2]: 4810 nM | IC50 [3]: < 31.6 nM | IC50 [4]: < 31.6 nM | IC50 [5]: < 31.6 nM | IC50 [6]: < 31.6 nM | viability, T/C [7]: 89.7% | viability, T/C [8]: 104% | viability, T/C (second compound 0.0316 µM, first compound 0.316 µM): 101% | viability, T/C (second compound 0.0316 µM, first compound 1 µM): 105% | viability, T/C (second compound 0.0316 µM, first compound 3.16 µM): 110% | viability, T/C (second compound 0.0316 µM, first compound 10 µM): 7.64% | viability, T/C [9]: 73.2% | viability, T/C [10]: 79.6% | viability, T/C (second compound 0.1 µM, first compound 0.316 µM): 78.4% | viability, T/C (second compound 0.1 µM, first compound 1 µM): 77.5% | viability, T/C (second compound 0.1 µM, first compound 3.16 µM): 74.4% | viability, T/C (second compound 0.1 µM, first compound 10 µM): 7.3% | viability, T/C [11]: 5.49% | viability, T/C [12]: 8.06% | viability, T/C (second compound 0.316 µM, first compound 0.316 µM): 8.27% | viability, T/C (second compound 0.316 µM, first compound 1 µM): 8.14% | viability, T/C (second compound 0.316 µM, first compound 3.16 µM): 9.01% | viability, T/C (second compound 0.316 µM, first compound 10 µM): 3.13% | viability, T/C [13]: 0.17% | viability, T/C [14]: 0.15% | viability, T/C (second compound 1 µM, first compound 0.316 µM): 0.14% | viability, T/C (second compound 1 µM, first compound 1 µM): 0.18% | viability, T/C (second compound 1 µM, first compound 3.16 µM): 0.12% | viability, T/C (second compound 1 µM, first compound 10 µM): 0.64% | viability, T/C [15]: 0.29% | viability, T/C [16]: 0.46% | viability, T/C (second compound 3.16 µM, first compound 0.316 µM): 0.42% | viability, T/C (second compound 3.16 µM, first compound 1 µM): 0.42% | viability, T/C (second compound 3.16 µM, first compound 3.16 µM): 0.31% | viability, T/C (second compound 3.16 µM, first compound 10 µM): 0.15% | viability, T/C [17]: 0.31% | viability, T/C [18]: 0.16% | viability, T/C (second compound 10 µM, first compound 0.316 µM): 0.31% | viability, T/C (second compound 10 µM, first compound 1 µM): 0.39% | viability, T/C (second compound 10 µM, first compound 3.16 µM): 0.95% | viability, T/C (second compound 10 µM, first compound 10 µM): 0.32%

IC50 [1]: > 100 nM | IC50 [2]: 36 nM | IC50 [3]: < 0.316 nM | IC50 [4]: < 0.316 nM | IC50 [5]: < 0.316 nM | IC50 [6]: < 0.316 nM
SMILES: Cn1ncnc1[C@H]1c2n[nH]c(=O)c3cc(F)cc(c23)N[C@@H]1c1ccc(F)cc1 + CNC(=O)c1ccc(Nc2nc(OC3CCCC3)c3c(-c4ccc5nc(C)oc5c4)c[nH]c3n2)c(OC)c1
viability, T/C (second compound 0.0316 µM, first compound 0.000316 µM): 118% | viability, T/C (second compound 0.0316 µM, first compound 0.001 µM): 102% | viability, T/C (second compound 0.0316 µM, first compound 0.00316 µM): 126% | viability, T/C (second compound 0.0316 µM, first compound 0.01 µM): 109% | viability, T/C [7]: 102% | viability, T/C [8]: 110% | viability, T/C (second compound 0.1 µM, first compound 0.000316 µM): 57.1% | viability, T/C (second compound 0.1 µM, first compound 0.001 µM): 59.4% | viability, T/C (second compound 0.1 µM, first compound 0.00316 µM): 45.4% | viability, T/C (second compound 0.1 µM, first compound 0.01 µM): 66.2% | viability, T/C [9]: 43.5% | viability, T/C [10]: 47.3% | viability, T/C (second compound 0.316 µM, first compound 0.000316 µM): 19.1% | viability, T/C (second compound 0.316 µM, first compound 0.001 µM): 22.2% | viability, T/C (second compound 0.316 µM, first compound 0.00316 µM): 20.5% | viability, T/C (second compound 0.316 µM, first compound 0.01 µM): 24.7% | viability, T/C [11]: 24.2% | viability, T/C [12]: 21.5% | viability, T/C (second compound 1 µM, first compound 0.000316 µM): 21% | viability, T/C (second compound 1 µM, first compound 0.001 µM): 17.4% | viability, T/C (second compound 1 µM, first compound 0.00316 µM): 18% | viability, T/C (second compound 1 µM, first compound 0.01 µM): 18.8% | viability, T/C [13]: 18.4% | viability, T/C [14]: 18.2% | viability, T/C (second compound 3.16 µM, first compound 0.000316 µM): 17.9% | viability, T/C (second compound 3.16 µM, first compound 0.001 µM): 17.6% | viability, T/C (second compound 3.16 µM, first compound 0.00316 µM): 22.1% | viability, T/C (second compound 3.16 µM, first compound 0.01 µM): 18.5% | viability, T/C [15]: 21.7% | viability, T/C [16]: 19.3% | viability, T/C (second compound 10 µM, first compound 0.000316 µM): 20.3% | viability, T/C (second compound 10 µM, first compound 0.001 µM): 21.9% | viability, T/C (second compound 10 µM, first compound 0.00316 µM): 19.2% | viability, T/C (second compound 10 µM, first compound 0.01 µM): 22% | viability, T/C [17]: 18% | viability, T/C [18]: 15.5%

SMILES: NC(=O)C(=Cn1cnc(-c2cc(C(F)(F)F)cc(C(F)(F)F)c2)n1)c1cncnc1 + CN1CCN(c2cc(C(=O)Nc3cc4cc(-c5cnn(C)c5)ccc4cn3)ccn2)CC1
IC50 [1]: 70.6 nM | IC50 [2]: 52.3 nM | IC50 [3]: < 9.49 nM | IC50 [4]: < 9.49 nM | IC50 [5]: < 9.49 nM | IC50 [6]: < 9.49 nM | viability, T/C (second compound 0.0316 µM, first compound 0.00949 µM): 137% | viability, T/C (second compound 0.0316 µM, first compound 0.03 µM): 122% | viability, T/C (second compound 0.0316 µM, first compound 0.0949 µM): 25.1% | viability, T/C (second compound 0.0316 µM, first compound 0.3 µM): 5.66% | viability, T/C (second compound 0.0316 µM, first compound 0.949 µM): 6% | viability, T/C (second compound 0.0316 µM, first compound 3 µM): 1.88% | viability, T/C (second compound 0.1 µM, first compound 0.00949 µM): 82.6% | viability, T/C (second compound 0.1 µM, first compound 0.03 µM): 90.1% | viability, T/C (second compound 0.1 µM, first compound 0.0949 µM): 11.2% | viability, T/C (second compound 0.1 µM, first compound 0.3 µM): 2.07% | viability, T/C (second compound 0.1 µM, first compound 0.949 µM): 3.91% | viability, T/C (second compound 0.1 µM, first compound 3 µM): 0.25% | viability, T/C (second compound 0.316 µM, first compound 0.00949 µM): 2.6% | viability, T/C (second compound 0.316 µM, first compound 0.03 µM): 1.37% | viability, T/C (second compound 0.316 µM, first compound 0.0949 µM): 1.48% | viability, T/C (second compound 0.316 µM, first compound 0.3 µM): 0.21% | viability, T/C (second compound 0.316 µM, first compound 0.949 µM): 0.13% | viability, T/C (second compound 0.316 µM, first compound 3 µM): 0.05% | viability, T/C (second compound 1 µM, first compound 0.00949 µM): 0.15% | viability, T/C (second compound 1 µM, first compound 0.03 µM): 0.76% | viability, T/C (second compound 1 µM, first compound 0.0949 µM): 0.42% | viability, T/C (second compound 1 µM, first compound 0.3 µM): 0.21% | viability, T/C (second compound 1 µM, first compound 0.949 µM): 0.71% | viability, T/C (second compound 1 µM, first compound 3 µM): 0.05% | viability, T/C (second compound 3.16 µM, first compound 0.00949 µM): 0.27% | viability, T/C (second compound 3.16 µM, first compound 0.03 µM): 0.21% | viability, T/C (second compound 3.16 µM, first compound 0.0949 µM): 0.42% | viability, T/C (second compound 3.16 µM, first compound 0.3 µM): 0.13% | viability, T/C (second compound 3.16 µM, first compound 0.949 µM): 0.22% | viability, T/C (second compound 3.16 µM, first compound 3 µM): 0.09% | viability, T/C (second compound 10 µM, first compound 0.00949 µM): 0.14% | viability, T/C (second compound 10 µM, first compound 0.03 µM): 0.09% | viability, T/C (second compound 10 µM, first compound 0.0949 µM): 0.34% | viability, T/C (second compound 10 µM, first compound 0.3 µM): 0.23% | viability, T/C (second compound 10 µM, first compound 0.949 µM): 0.6% | viability, T/C (second compound 10 µM, first compound 3 µM): 0.2%
